Reference: ChEMBL document CHEMBL1127068, “Selective inhibition of mammalian lanosterol 14 alpha-demethylase: a possible strategy for cholesterol lowering” (J Med Chem, 1993)

How the values were obtained:
Cricetinae gen. sp. [1] = test: Effect on total serum cholesterol in male hamsters at a dose of 60 mg/kg orally administered for 3 days; assay type: functional, Cricetulus griseus; conditions: route oral
Cricetinae gen. sp. [2] = test: Percentage lowering of the total serum cholesterol in male hamsters at a dose of 60 […] orally administered for 3 days; assay type: functional, Cricetulus griseus
Cricetinae gen. sp. [3] = test: Percentage lowering of the total serum cholesterol in male hamsters at a dose of 200 […] orally administered for 14 days; assay type: functional, Cricetulus griseus
Cricetinae gen. sp. [4] = test: Effect on total serum cholesterol in male hamsters at a dose of 25 mg/kg orally administered for 14 days; assay type: functional, Cricetulus griseus; conditions: route oral
Cricetinae gen. sp. [5] = test: Effect on total serum cholesterol in male hamsters at a dose of 100 mg/kg orally administered for 14 days; assay type: functional, Cricetulus griseus; conditions: route oral
Cricetinae gen. sp. [6] = test: Effect on total serum cholesterol in male hamsters at a dose of 50 mg/kg orally administered for 14 days; assay type: functional, Cricetulus griseus; conditions: route oral
[7] = target: T1, Lanosterol 14-alpha demethylase (Rattus norvegicus, UniProt Q64654); test: Inhibition of lanosterol 14-alpha-demethylase of rat hepatic microsomes
T1 sequence (Q64654 whole entry): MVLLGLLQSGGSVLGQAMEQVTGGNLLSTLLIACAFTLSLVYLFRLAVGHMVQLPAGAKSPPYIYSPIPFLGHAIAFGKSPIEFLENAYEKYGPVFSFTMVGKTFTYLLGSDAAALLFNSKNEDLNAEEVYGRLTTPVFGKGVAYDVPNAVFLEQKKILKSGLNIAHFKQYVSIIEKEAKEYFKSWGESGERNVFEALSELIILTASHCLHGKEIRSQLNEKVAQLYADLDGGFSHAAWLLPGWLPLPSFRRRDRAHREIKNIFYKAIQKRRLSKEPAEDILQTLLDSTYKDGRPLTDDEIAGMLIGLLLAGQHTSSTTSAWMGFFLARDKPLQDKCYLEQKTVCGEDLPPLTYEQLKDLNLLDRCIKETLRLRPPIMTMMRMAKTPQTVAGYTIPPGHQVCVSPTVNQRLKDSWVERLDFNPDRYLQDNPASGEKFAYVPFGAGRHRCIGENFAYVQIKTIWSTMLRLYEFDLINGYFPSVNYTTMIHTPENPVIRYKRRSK

Homo sapiens = organism: Homo sapiens; test: Inhibition of cellular cholesterol biosynthesis using human fibroblasts in tissue culture; assay type: functional, organism-based
Cricetinae gen. sp. [8] = test: Percentage lowering of the total serum cholesterol in male hamsters at a dose of 50 mg/dL orally administered for 14 days; assay type: functional, Cricetulus griseus
Cricetinae gen. sp. [9] = test: Percentage increase of the total serum cholesterol in male hamsters at a dose of 25 […] orally administered for 14 days; assay type: functional, Cricetulus griseus
Cricetinae gen. sp. [10] = test: Effect on total serum cholesterol in male hamsters at a dose of 200 mg/kg orally administered for 14 days; assay type: functional, Cricetulus griseus; conditions: route oral
Cricetinae gen. sp. [11] = test: Percentage lowering of the total serum cholesterol in male hamsters at a dose of 100 […] orally administered for 14 days; assay type: functional, Cricetulus griseus
Cricetinae gen. sp. [12] = test: Effect on total serum cholesterol in male hamsters at a dose of 10 mg/kg orally administered for 14 days; assay type: functional, Cricetulus griseus; conditions: route oral
Cricetinae gen. sp. [13] = test: Percentage lowering of the total serum cholesterol in male hamsters at a dose of 10 […] orally administered for 3 days; assay type: functional, Cricetulus griseus
[14] = Inhibition of lanosterol 14-alpha-demethylation in hepatic microsomes from rat; assay type: functional, Liver
Cricetinae gen. sp. [15] = test: Percentage lowering of the total serum cholesterol in male hamsters at a dose of 25 mg/dL orally administered for 14 days; assay type: functional, Cricetulus griseus
Cricetinae gen. sp. [16] = test: Effect on total serum cholesterol in male hamsters at a dose of 30 mg/kg orally administered for 3 days; assay type: functional, Cricetulus griseus; conditions: route oral
[17] = target: T2, Steroid 17-alpha-hydroxylase/17,20 lyase (Homo sapiens, UniProt P05093); test: Binding affinity for progesterone 17-alpha,20-lyase
T2 sequence (P05093 whole entry): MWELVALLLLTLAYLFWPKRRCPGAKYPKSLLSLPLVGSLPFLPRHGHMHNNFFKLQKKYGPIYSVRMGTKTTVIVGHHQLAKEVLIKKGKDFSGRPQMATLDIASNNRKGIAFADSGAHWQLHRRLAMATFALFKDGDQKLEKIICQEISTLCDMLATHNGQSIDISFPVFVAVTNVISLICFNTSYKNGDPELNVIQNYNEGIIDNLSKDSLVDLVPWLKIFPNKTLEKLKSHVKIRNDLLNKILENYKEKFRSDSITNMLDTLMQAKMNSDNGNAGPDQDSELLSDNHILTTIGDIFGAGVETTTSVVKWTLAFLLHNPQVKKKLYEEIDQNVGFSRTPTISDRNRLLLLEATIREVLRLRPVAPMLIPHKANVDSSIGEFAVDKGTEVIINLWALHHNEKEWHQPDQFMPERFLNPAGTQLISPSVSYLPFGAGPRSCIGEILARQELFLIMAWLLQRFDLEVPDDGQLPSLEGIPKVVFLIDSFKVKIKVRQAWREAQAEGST

Aromatase = target: T3, Aromatase (Homo sapiens, UniProt P11511); test: Binding affinity for Cytochrome P450 19A1
T3 sequence (P11511 whole entry): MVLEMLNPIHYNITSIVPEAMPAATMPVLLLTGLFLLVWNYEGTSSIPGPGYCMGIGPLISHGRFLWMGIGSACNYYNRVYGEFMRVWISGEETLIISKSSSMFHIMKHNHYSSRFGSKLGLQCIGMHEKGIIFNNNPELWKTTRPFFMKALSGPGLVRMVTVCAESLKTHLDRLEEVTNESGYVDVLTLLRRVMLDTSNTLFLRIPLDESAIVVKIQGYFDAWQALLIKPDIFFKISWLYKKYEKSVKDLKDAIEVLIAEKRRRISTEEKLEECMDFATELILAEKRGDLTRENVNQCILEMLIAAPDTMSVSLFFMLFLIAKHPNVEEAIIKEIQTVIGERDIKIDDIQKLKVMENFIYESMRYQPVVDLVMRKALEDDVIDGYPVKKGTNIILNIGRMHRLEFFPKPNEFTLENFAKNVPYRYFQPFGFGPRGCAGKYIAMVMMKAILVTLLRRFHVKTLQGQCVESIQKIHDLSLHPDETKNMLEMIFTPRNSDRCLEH

[18] = Inhibition of lanosterol 14-alpha-demethylation in hepatic microsomes from human; assay type: functional, Liver
[19] = Inhibition of lanosterol 14-alpha-demethylation in hepatic microsomes from hamster; assay type: functional, Cricetulus griseus, Liver
Cricetinae gen. sp. [20] = test: Percentage lowering of the total serum cholesterol in male hamsters at a dose of 5 mg/dL orally administered for 14 days; assay type: functional, Cricetulus griseus
[21] = target: T2, Steroid 17-alpha-hydroxylase/17,20 lyase; test: Binding affinity for […] 17-alpha-hydroxylase
Cricetinae gen. sp. [22] = test: Effect on total serum cholesterol in male hamsters at a dose of 10 mg/kg orally administered for 3 days; assay type: functional, Cricetulus griseus; conditions: route oral
Cytochrome P450 3A4 = Cytochrome P450 3A4 (Homo sapiens, UniProt P08684); test: Binding affinity for progesterone 6-beta-hydroxylase of hepatic microsomes; assay type: ADME
Cricetinae gen. sp. [23] = test: Percentage lowering of the total serum cholesterol in male hamsters at a dose of 10 […] orally administered for 14 days; assay type: functional, Cricetulus griseus
Cricetinae gen. sp. [24] = test: Effect on total serum cholesterol in male hamsters at a dose of 100 mg/kg orally administered for 3 days; assay type: functional, Cricetulus griseus; conditions: route oral
Cricetinae gen. sp. [25] = test: Percentage lowering of the total serum cholesterol in male hamsters at a dose of 30 mg/dL orally administered for 3 days; assay type: functional, Cricetulus griseus
Cricetinae gen. sp. [26] = test: Percentage lowering of the total serum cholesterol in male hamsters at a dose of 100 […] orally administered for 3 days; assay type: functional, Cricetulus griseus
Cricetinae gen. sp. [27] = test: Effect on total serum cholesterol in male hamsters at a dose of 5 mg/kg orally administered for 14 days; assay type: functional, Cricetulus griseus; conditions: route oral
[28] = target: T4, Cytochrome P450 11B1, mitochondrial (Homo sapiens, UniProt P15538); test: Binding affinity for corticoid 11-beta-hydroxylase
T4 sequence (P15538 whole entry): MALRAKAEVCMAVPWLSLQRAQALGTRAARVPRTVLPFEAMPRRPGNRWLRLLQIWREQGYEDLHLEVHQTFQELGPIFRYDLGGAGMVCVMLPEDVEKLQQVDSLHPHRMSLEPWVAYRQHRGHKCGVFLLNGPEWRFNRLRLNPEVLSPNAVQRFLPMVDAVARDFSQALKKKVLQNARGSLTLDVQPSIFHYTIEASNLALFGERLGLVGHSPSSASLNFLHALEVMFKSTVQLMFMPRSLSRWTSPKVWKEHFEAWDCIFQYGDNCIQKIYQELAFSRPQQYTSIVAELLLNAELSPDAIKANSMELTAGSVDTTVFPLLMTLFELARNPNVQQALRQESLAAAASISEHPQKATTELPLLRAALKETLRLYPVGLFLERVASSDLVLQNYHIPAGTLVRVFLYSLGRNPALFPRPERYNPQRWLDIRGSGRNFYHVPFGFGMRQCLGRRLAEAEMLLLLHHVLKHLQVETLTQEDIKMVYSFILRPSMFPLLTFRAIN

Cytochrome P450 3A4, sequence (P08684 whole entry): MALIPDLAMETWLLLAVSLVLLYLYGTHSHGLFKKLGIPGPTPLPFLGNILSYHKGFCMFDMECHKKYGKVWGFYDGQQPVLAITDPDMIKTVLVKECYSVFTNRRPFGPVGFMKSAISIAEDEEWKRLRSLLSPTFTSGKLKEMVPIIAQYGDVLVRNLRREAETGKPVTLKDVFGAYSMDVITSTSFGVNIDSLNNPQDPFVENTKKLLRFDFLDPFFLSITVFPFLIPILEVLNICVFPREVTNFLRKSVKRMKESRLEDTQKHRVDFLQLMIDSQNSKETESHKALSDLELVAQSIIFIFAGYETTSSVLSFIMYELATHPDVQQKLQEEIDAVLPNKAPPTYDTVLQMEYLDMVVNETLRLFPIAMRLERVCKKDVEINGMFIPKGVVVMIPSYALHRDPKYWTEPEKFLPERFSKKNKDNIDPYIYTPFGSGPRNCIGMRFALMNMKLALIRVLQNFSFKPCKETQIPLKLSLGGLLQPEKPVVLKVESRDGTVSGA

**Q.** Which TC (Cricetinae gen. sp. [1]) does the source give for `Nc1ccc(SC[C@H]2CO[C@](CCc3ccc(Cl)cc3)(Cn3ccnc3)O2)cc1` here?
**A.** 85.1 mg/dL

**Q.** And the Lowering (Cricetinae gen. sp. [2])?
**A.** 40%

**Q.** With `CC(=O)N1CCN(c2ccc(OCC3COC(Cn4ccnc4)(c4ccc(Cl)cc4Cl)O3)cc2)CC1` (stereo not given) [KETOCONAZOLE] as the compound, how does the Lowering (Cricetinae gen. sp. [3]) read?
**A.** 30%

**Q.** And the TC (Cricetinae gen. sp. [4])?
**A.** 125.2 mg/dL

**Q.** What about the TC (Cricetinae gen. sp. [5]) of the same compound?
**A.** 105 mg/dL

**Q.** And the TC (Cricetinae gen. sp. [6])?
**A.** 111.4 mg/dL

**Q.** What about the Ki [7] of the same compound?
**A.** 65 nM

**Q.** What about the IC50 (Homo sapiens) of the same compound?
**A.** 37 nM

**Q.** And the Lowering (Cricetinae gen. sp. [8])?
**A.** 6%

**Q.** What about the Increase (Cricetinae gen. sp. [9]) of the same compound?
**A.** 6%

**Q.** What about the TC (Cricetinae gen. sp. [10]) of the same compound?
**A.** 83.1 mg/dL

**Q.** And the Lowering (Cricetinae gen. sp. [11])?
**A.** 11%

**Q.** Which TC (Cricetinae gen. sp. [12]) does the source give for `Nc1ccc(SC[C@@H]2CO[C@](CCc3ccc(Cl)cc3)(Cn3ccnc3)O2)cc1` [AZALANSTAT] here?
**A.** 104 mg/dL

**Q.** What about the Lowering (Cricetinae gen. sp. [13]) of the same compound?
**A.** 23%

**Q.** What about the Ki [14] of the same compound?
**A.** 2.5 nM

**Q.** What about the Lowering (Cricetinae gen. sp. [15]) of the same compound?
**A.** 30%

**Q.** What about the TC (Cricetinae gen. sp. [4]) of the same compound?
**A.** 82.9 mg/dL

**Q.** And the TC (Cricetinae gen. sp. [16])?
**A.** 71 mg/dL

**Q.** What about the TC (Cricetinae gen. sp. [6]) of the same compound?
**A.** 74.7 mg/dL

**Q.** What about the Ki [17] of the same compound?
**A.** 447 nM

**Q.** And the Ki (Aromatase)?
**A.** 7.6 nM

**Q.** What about the Ki [18] of the same compound?
**A.** 0.79 nM

**Q.** And the Ki [19]?
**A.** 1.4 nM

**Q.** And the Lowering (Cricetinae gen. sp. [20])?
**A.** 2%

**Q.** What about the Ki [21] of the same compound?
**A.** 1620 nM

**Q.** And the TC (Cricetinae gen. sp. [22])?
**A.** 85.1 mg/dL

**Q.** And the Ki (Cytochrome P450 3A4)?
**A.** 28 nM

**Q.** What about the Lowering (Cricetinae gen. sp. [23]) of the same compound?
**A.** 12%

**Q.** And the TC (Cricetinae gen. sp. [24])?
**A.** 41.8 mg/dL

**Q.** And the Lowering (Cricetinae gen. sp. [25])?
**A.** 36%

**Q.** What about the Lowering (Cricetinae gen. sp. [26]) of the same compound?
**A.** 62%

**Q.** What about the IC50 (Homo sapiens) of the same compound?
**A.** 0.09 nM

**Q.** What about the Lowering (Cricetinae gen. sp. [8]) of the same compound?
**A.** 37%

**Q.** And the TC (Cricetinae gen. sp. [27])?
**A.** 115.5 mg/dL

**Q.** What about the Ki [28] of the same compound?
**A.** 35 nM
